Measured values from patent publication US10047105B2, “Gyrase inhibitors” (Merck Sharp & Dohme Corp., priority 2009, dated 2018).
Values after ≈ are worked out from the molar mass of the structure shown.

Experiments:
S. aureus ATCC 13709 = assay: MIC, antibacterial potency, S. aureus; format: cell-based; conditions: S. aureus
S. pneumoniae ATCC 51916 = assay: MIC, S. pneumoniae; format: cell-based; conditions: S. pneumoniae

| SMILES | MIC, SA (S. aureus ATCC 13709) [µg/mL] | MIC Spn52 (S. pneumoniae ATCC 51916) [µg/mL] |
| --- | --- | --- |
| CCc1[nH]c2nc(Sc3cccnc3)nc(Cl)c2c1C=O [700,075] | 64 (≈ 201 µM) |  |
| CCc1[nH]c2nc(Sc3cccnc3)nc(NCC(C)C)c2c1C=O [700,076] | > 64 |  |
| CCc1[nH]c2nc(Sc3cccnc3)nc(NCc3ccc(C)o3)c2c1C=O [700,077] | > 64 |  |
| CCc1[nH]c2nc(Sc3cccnc3)nc(NCC3CCCCC3)c2c1C=O [700,078] | > 64 |  |
| CCc1[nH]c2nc(Sc3cccnc3)nc(NCCOc3ccccc3)c2c1C=O [700,079] | > 64 |  |
| CCc1[nH]c2nc(Sc3cccnc3)nc(NCc3ccccc3)c2c1C=O [700,080] | > 64 |  |
| CCOCCNc1nc(Sc2cccnc2)nc2[nH]c(CC)c(C=O)c12 [700,082] | > 64 |  |
| CCc1[nH]c2nc(Sc3cccnc3)nc(N3CCN(C(C)C)CC3)c2c1C=O [700,084] | > 64 |  |
| CCc1[nH]c2nc(Sc3cccnc3)nc(N3CCN(CC(=O)N(C)C)CC3)c2c1C=O [700,085] | > 64 |  |
| CCc1[nH]c2nc(Sc3cccnc3N)nc(Cl)c2c1C=O [700,088] | > 64 |  |
| CCc1[nH]c2nc(Sc3cccnc3)nc(NCC(O)CO)c2c1C=O (centres unmarked) [700,090] | > 64 |  |
| CCc1[nH]c2nc(Sc3cccnc3)nc(NCc3ccccc3OC)c2c1C=O [700,091] | > 64 |  |
| CCc1[nH]c2nc(Sc3cccnc3)nc(NCC3CCCO3)c2c1C=O (centres unmarked) [700,092] | 64 (≈ 167 µM) |  |
| CCc1[nH]c2nc(Sc3cccnc3)nc(NC(C)C)c2c1C=O [700,093] | > 64 |  |
| CCc1[nH]c2nc(Sc3cccnc3)nc(NCCOC)c2c1C=O [700,094] | 64 (≈ 179 µM) |  |
| CCc1[nH]c2nc(Sc3cccnc3)nc(NCCO)c2c1C=O [700,096] | > 64 |  |
| CCc1[nH]c2nc(Sc3cccnc3)nc(NCc3cccc(S(C)(=O)=O)c3)c2c1C=O.Cl [700,098] | > 64 |  |
| CCc1[nH]c2nc(Sc3nc4ccccc4s3)nc(Cl)c2c1C=O [700,099] | > 64 |  |
| CCc1[nH]c2nc(Sc3nc4ccccc4s3)nc(NC[C@H](C)O)c2c1C=O [700,100] | > 64 |  |
| CCc1[nH]c2nc(Sc3nc4ccccc4s3)nc(NC(C)C)c2c1C=O [700,101] | > 64 |  |

| SMILES | MIC, SA (S. aureus ATCC 13709) [µg/mL] | MIC Spn52 (S. pneumoniae ATCC 51916) [µg/mL] |
| --- | --- | --- |
| CCc1[nH]c2nc(Sc3nc4ccccc4s3)nc(NCCN3CCOCC3)c2c1C=O [700,102] | > 64 |  |
| CCc1[nH]c2nc(Sc3nc4ccccc4s3)nc(NCc3cccnc3)c2c1C=O [700,103] | > 64 |  |
| C#CCNc1nc(Sc2nc3ccccc3s2)nc2[nH]c(CC)c(C=O)c12 [700,104] | > 64 |  |
| CCNc1nc(Sc2nc3ccccc3s2)nc2[nH]c(CC)c(C=O)c12 [700,105] | > 64 |  |
| CCc1[nH]c2nc(Sc3nc4ccccc4s3)nc(NCCCN3CCOCC3)c2c1C=O [700,106] | > 64 |  |
| CCc1[nH]c2nc(Sc3nc4ccccc4s3)nc(NCCCn3ccnc3)c2c1C=O [700,107] | > 64 |  |
| CCc1nc2c(N(C)C)nc(Sc3cccc(C(=O)O)c3)nc2[nH]1.O=C(O)C(F)(F)F [700,220] | > 64 | 64 |
| CCc1[nH]c2nc(Sc3cccnc3)nc(NCCCn3ccnc3)c2c1C=O.O=C(O)C(F)(F)F.O=C(O)C(F)(F)F [700,261] | 16 | 32 |
| CCc1[nH]c2nc(Sc3cccnc3)nc(Cl)c2c1Br.O=C(O)C(F)(F)F [700,267] | 2 | 16 |
| CCc1[nH]c2nc(Sc3cccnc3)nc(Cl)c2c1Cl.O=C(O)C(F)(F)F [700,268] | 4 | 16 |
| CCc1[nH]c2nc(Sc3cccnc3)nc(NCCCn3ccnc3)c2c1Br.O=C(O)C(F)(F)F.O=C(O)C(F)(F)F [700,269] | 4 | 16 |
| CCc1[nH]c2nc(Sc3cccnc3)nc(NC[C@H](C)O)c2c1Br.O=C(O)C(F)(F)F [700,270] | 2 | 8 |
| CCc1[nH]c2nc(Sc3cccnc3)nc(NCc3ccccc3OC)c2c1Br.O=C(O)C(F)(F)F [700,271] | > 64 | > 64 |
| CCc1[nH]c2nc(Sc3cccnc3)nc(NC[C@H](C)O)c2c1Cl.O=C(O)C(F)(F)F [700,273] | 4 | 16 |
| CCc1[nH]c2nc(Sc3cccnc3)nc(NCCCn3ccnc3)c2c1Cl.O=C(O)C(F)(F)F [700,274] | 4 | 16 |
| CCOc1nc(Sc2cccnc2)nc2[nH]c(CC)c(Br)c12.O=C(O)C(F)(F)F [700,275] | 1 | 8 |
| Fc1ccc(Oc2nc(Nc3cccnc3)nc3[nH]cc(Br)c23)c(F)c1.O=C(O)C(F)(F)F [700,315] | 16 | 64 |
| CCc1[nH]c2nc(Sc3nc(C(=O)O)cs3)nc(N3CC(Cc4c(Cl)ncnc4Cl)C3)c2c1Cl.O=C(O)C(F)(F)F [700,317] | > 64 | > 64 |
| CCc1[nH]c2nc(Sc3nc(C(=O)O)cs3)nc(N3CC(Cc4cncnc4)C3)c2c1Cl.O=C(O)C(F)(F)F [700,318] | > 64 | > 64 |

Other lines, results leading:

| MIC, SA (S. aureus ATCC 13709) [µg/mL] | MIC Spn52 (S. pneumoniae ATCC 51916) [µg/mL] | SMILES |
| --- | --- | --- |
| > 64 |  | CCc1[nH]c2nc(Sc3nc4ccccc4s3)nc(NN)c2c1C=O [700,108] |
| > 64 |  | CCc1[nH]c2nc(Sc3nc4ccccc4s3)nc(Cl)c2c1CO [700,109] |
| 64 (≈ 192 µM) |  | CCc1[nH]c2nc(Sc3cccnc3)nc(Cl)c2c1C(C)=O [700,119] |
| 32 (≈ 75.9 µM) |  | CCc1[nH]c2nc(Sc3cccnc3)nc(NCCCn3ccnc3)c2c1C(C)=O [700,121] |
| > 64 |  | CCc1[nH]c2nc(Sc3cccnc3)nc(NC(C)C)c2c1C(C)=O [700,122] |
| > 64 |  | CCc1[nH]c2nc(Sc3cccc(C(=O)O)c3)nc(NC[C@H](C)O)c2c1C=O [700,127] |
| 16 (≈ 50.9 µM) |  | CCc1[nH]c2nc(Sc3cccnc3)nc(OC)c2c1C=O [700,129] |
| 8 (≈ 24.4 µM) |  | CCOc1nc(Sc2cccnc2)nc2[nH]c(CC)c(C=O)c12 [700,130] |
| 64 (≈ 179 µM) |  | CCc1[nH]c2nc(Sc3cccnc3)nc(N[C@H](C)CO)c2c1C=O [700,131] |
| 32 (≈ 80.5 µM) |  | CCc1[nH]c2nc(Sc3cccnc3)nc(NC3CCCC[C@H]3O)c2c1C=O (some centres unmarked) [700,132] |
| > 64 |  | CCc1[nH]c2nc(Sc3cccnc3)nc(N[C@H]3CCCC[C@@H]3N)c2c1C=O [700,133] |
| > 64 |  | CCOC(=O)c1ccc(CNc2nc(Sc3cccnc3)nc3[nH]c(CC)c(C=O)c23)o1 [700,135] |
| 16 (≈ 48.9 µM) |  | CCc1[nH]c2nc(Sc3cccnc3)nc(N(C)C)c2c1C=O [700,136] |
| 64 (≈ 166 µM) |  | CCc1[nH]c2nc(Sc3cccnc3)nc(N(C)CCN(C)C)c2c1C=O [700,137] |
| 64 (≈ 155 µM) |  | CCc1[nH]c2nc(Sc3cccnc3)nc(NCCCCCC(=O)O)c2c1C=O [700,141] |
| 32 (≈ 71.5 µM) |  | CCc1[nH]c2nc(Sc3cccnc3)nc(NC34CC5CC(C3)C(=O)C(C5)C4)c2c1C=O [700,142] |
| > 64 |  | CCc1[nH]c2nc(Sc3nc4ccccc4s3)nc(N)c2c1C [700,147] |
| > 64 |  | CCc1[nH]c2nc(SCc3cccnc3)nc(N)c2c1C [700,148] |
| > 64 |  | CCc1[nH]c2nc(Sc3cnc4ccccc4n3)nc(N)c2c1C [700,149] |
| 32 (≈ 72.2 µM) | 64 (≈ 144 µM) | CCOc1nc(Sc2nc(C(=O)OC)cs2)nc2[nH]c(CC)c(Br)c12 [700,281] |
| ≤ 0.5 | 4 (≈ 9.63 µM) | CCc1[nH]c2nc(Sc3nc(C(=O)OC)cs3)nc(O)c2c1Br [700,282] |

| MIC, SA (S. aureus ATCC 13709) [µg/mL] | MIC Spn52 (S. pneumoniae ATCC 51916) [µg/mL] | SMILES |
| --- | --- | --- |
| 4 (≈ 9.32 µM) | 32 (≈ 74.5 µM) | CCOc1nc(Sc2nc(C(=O)O)cs2)nc2[nH]c(CC)c(Br)c12 [700,286] |
| > 64 | > 64 | CCc1[nH]c2nc(Sc3cccnc3)nc(NCCNc3ccc(C(=O)O)cn3)c2c1C=O [700,287] |
| > 64 | 64 (≈ 184 µM) | CCOc1nc(S(C)(=O)=O)nc2[nH]c(CC)c(Br)c12 [700,288] |
| > 64 | > 64 | CCOC(=O)c1coc(Sc2nc(OCC)c3c(Br)c(CC)[nH]c3n2)n1 [700,290] |
| > 64 | > 64 | CCOC(=O)c1cnc(Sc2nc(OCC)c3c(Br)c(CC)[nH]c3n2)s1 [700,291] |
| > 64 | > 64 | CCOc1nc(Sc2nc(C(=O)O)co2)nc2[nH]c(CC)c(Br)c12 [700,292] |
| 32 (≈ 74.5 µM) | 32 (≈ 74.5 µM) | CCOc1nc(Sc2ncc(C(=O)O)s2)nc2[nH]c(CC)c(Br)c12 [700,293] |
| > 64 | > 64 | CCOc1nc(Sc2nc(C(=O)N[C@H]3CCOC3=O)co2)nc2[nH]c(CC)c(Br)c12 [700,294] |
| > 64 | 32 (≈ 66.6 µM) | CCc1[nH]c2nc(Sc3cccc(NC(=O)OC)c3)nc(NC[C@H](C)O)c2c1Br [700,295] |
| > 64 | 64 (≈ 145 µM) | CCc1[nH]c2nc(Sc3cccc(CC(=O)OC)c3)nc(Cl)c2c1Br [700,296] |
| ≤ 0.5 | 2 (≈ 4.64 µM) | CCOc1nc(Sc2cnc3cccnc3n2)nc2[nH]c(CC)c(Br)c12 [700,297] |
| 2 (≈ 5.17 µM) | 8 (≈ 20.7 µM) | CCOc1nc(Sc2cnc3cccnc3n2)nc2[nH]c(CC)c(Cl)c12 [700,298] |
| 64 (≈ 132 µM) | > 64 | CCOc1nc(Sc2nc(C(=O)OC)c(C(C)C)s2)nc2[nH]c(CC)c(Br)c12 [700,301] |
| 32 (≈ 72.6 µM) | > 64 | CCOc1nc(Sc2nc(C(=O)OC)c(C(C)C)s2)nc2[nH]c(CC)c(Cl)c12 [700,302] |
| 4 (≈ 8.49 µM) | 32 (≈ 67.9 µM) | CCOc1nc(Sc2nc(C(=O)O)c(C(C)C)s2)nc2[nH]c(CC)c(Br)c12 [700,303] |
| 8 (≈ 18.1 µM) | 32 (≈ 72.6 µM) | CCOc1nc(Sc2nc(C(=O)OC)c(C(C)C)s2)nc2[nH]c(CC)c(Cl)c12 [700,304] |
| > 64 | > 64 | CCOc1nc(Sc2cc(C(=O)NC3CC3)ccn2)nc2[nH]c(CC)c(Br)c12 [700,305] |
| > 64 | > 64 | CCOc1nc(Sc2cc(C(=O)NC3CC3)ccn2)nc2[nH]c(CC)c(Cl)c12 [700,306] |
| 4 (≈ 9.37 µM) | 64 (≈ 150 µM) | CCc1[nH]c2nc(Sc3cccc(CC(=O)O)c3)nc(Cl)c2c1Br [700,307] |
| > 64 | > 64 | CCc1[nH]c2nc(Sc3nc(C(=O)OC)cs3)nc(Cl)c2c1Cl [700,320] |
|  | 8 (≈ 14.7 µM) | CCc1[nH]c2nc(Sc3cc(=O)n(CCc4ccccc4)c(=O)[nH]3)nc(N3CC(O)C3)c2c1Br [700,413] |
